Measurements from patent publication US8791116B2, “Myosin light chain kinase inhibitor compounds, compositions and related methods of use” (Northwestern University, priority 2006, dated 2014).
“Also recorded” adds a separate entry of the source.

Columns and labels:
MLCK = MLCK (Homo sapiens, UniProt Q15746); assay: MLCK inhibitory activity screen (32P-ATP peptide substrate phosphorylation); assay type: biochemical; details: for IC50: 20 μM peptide substrate, 200 μM ATP, 20 min at 25° C., read-out: MLCK (μM), in vitro inhibition of kinases; for selectivity for MLCK over related protein kinases (in words): compared to DAPK, PKC and PKA
Chain of MLCK (Q15746 whole entry): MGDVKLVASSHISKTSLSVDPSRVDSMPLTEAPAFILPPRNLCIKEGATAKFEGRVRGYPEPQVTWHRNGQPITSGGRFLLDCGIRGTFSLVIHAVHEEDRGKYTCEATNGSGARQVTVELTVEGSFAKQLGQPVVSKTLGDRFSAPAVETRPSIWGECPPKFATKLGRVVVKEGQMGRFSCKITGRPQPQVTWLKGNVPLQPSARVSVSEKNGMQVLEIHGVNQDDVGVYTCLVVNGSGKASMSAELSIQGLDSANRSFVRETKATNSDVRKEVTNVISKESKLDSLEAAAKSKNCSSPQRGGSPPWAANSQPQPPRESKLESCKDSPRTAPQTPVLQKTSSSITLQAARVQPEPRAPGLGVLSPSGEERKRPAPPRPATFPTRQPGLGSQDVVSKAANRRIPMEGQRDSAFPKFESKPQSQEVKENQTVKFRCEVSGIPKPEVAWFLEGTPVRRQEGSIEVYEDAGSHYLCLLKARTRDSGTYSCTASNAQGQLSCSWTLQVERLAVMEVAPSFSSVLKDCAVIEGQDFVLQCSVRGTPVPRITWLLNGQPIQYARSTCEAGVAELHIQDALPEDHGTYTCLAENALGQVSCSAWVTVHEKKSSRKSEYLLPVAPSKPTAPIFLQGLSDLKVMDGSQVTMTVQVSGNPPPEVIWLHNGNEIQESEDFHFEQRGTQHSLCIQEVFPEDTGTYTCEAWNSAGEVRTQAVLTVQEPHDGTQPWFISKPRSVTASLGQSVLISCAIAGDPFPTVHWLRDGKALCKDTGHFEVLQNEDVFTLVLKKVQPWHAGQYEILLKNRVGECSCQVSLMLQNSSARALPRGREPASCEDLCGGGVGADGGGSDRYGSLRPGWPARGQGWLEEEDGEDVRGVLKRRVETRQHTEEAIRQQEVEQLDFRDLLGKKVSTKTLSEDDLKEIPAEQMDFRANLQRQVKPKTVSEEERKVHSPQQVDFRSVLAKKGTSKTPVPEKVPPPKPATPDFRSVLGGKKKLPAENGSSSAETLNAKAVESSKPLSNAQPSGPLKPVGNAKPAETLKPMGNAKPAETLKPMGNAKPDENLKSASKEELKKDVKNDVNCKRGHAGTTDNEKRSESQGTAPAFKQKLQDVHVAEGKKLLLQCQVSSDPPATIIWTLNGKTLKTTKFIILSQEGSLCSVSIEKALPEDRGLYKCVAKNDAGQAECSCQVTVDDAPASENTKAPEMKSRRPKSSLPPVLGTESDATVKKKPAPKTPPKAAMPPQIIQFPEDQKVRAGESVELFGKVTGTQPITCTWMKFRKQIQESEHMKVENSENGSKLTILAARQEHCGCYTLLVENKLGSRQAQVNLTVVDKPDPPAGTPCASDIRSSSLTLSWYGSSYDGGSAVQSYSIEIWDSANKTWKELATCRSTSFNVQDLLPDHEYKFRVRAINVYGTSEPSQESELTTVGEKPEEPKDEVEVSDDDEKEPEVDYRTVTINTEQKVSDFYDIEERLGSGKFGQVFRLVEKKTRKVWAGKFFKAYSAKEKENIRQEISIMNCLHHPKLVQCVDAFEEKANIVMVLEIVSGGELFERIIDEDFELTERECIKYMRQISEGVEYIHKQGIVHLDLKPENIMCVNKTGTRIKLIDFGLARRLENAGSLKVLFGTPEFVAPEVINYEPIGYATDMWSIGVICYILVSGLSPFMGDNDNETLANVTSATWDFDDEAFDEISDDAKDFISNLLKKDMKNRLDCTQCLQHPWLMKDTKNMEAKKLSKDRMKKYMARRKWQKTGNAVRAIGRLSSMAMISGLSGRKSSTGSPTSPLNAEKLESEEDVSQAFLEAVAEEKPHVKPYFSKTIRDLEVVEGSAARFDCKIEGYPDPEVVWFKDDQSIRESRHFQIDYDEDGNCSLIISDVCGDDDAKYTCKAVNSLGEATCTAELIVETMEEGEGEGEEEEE
Procedure: (§1) MLCK inhibitory activity screens were done by incubation with 20 μM peptide substrate ([…]), 200 μM ATP and [^32P]-ATP (2.5 μCi per reaction) in assay buffer (50 mM HEPES, pH 7.5 with KOH, 5 mM MgCl2, 0.15 M KCl, 0.015 M NaCl, 1 mM DTT) with 0.1 mM CaCl2 and 1 μM calmodulin (New England Biolabs, MA). [T. J. Lukas, S. Mirzoeva, U. Slomczynska and D. M. Watterson, J. Med. Chem. 42 (1999) 910-9.] Reactions were initiated by addition of MLCK protein and incubated for 20 min at 25° C. Reactions were spotted onto P-81 paper (Whatman, Clifton, N.J.), washed with 75 mM H3PO4 and 95% EtOH, and quantified by scintillation counting in EcoScintO (National Diagnostics, Atlanta, Ga.). Testing of compounds for kinase inhibitory activity against the structurally and functionally related kinases death-associated protein kinase (DAPK) and the signal transduction pathway relevant kinases protein kinase A (PKA) and protein kinase C (PKC) was performed as described by using the corresponding peptide substrates and assay conditions. [[…]. Guo, […]. Bourguignon, […]. Van Eldik and D. M. Watterson, J. Med. Chem 45 (2002) 563-6; A. M. Schumacher, […] and D. M. Watterson, Biochemistry 43 (2004) 8116-24; […]. Schumacher and D. M. Watterson, Pharmacol Ther 93 (2002) 217-24; […]. Schumacher, C. Weiss, M. Egli and D. M. Watterson, J. Biol. Chem. 276 (2001) 38956-65; D. M. Watterson, S. Mirzoeva, L. Guo, […]. Bourguignon, […] and L. J. Van Eldik, Neurochem Int. 39 (2001) 459-68.]

[1] = biological target: death-associated protein kinase (DAPK) (Homo sapiens, UniProt P53355); assay: Kinase inhibitory activity against death-associated protein kinase; assay type: biochemical; details: read-out: DAPK (μM), in vitro inhibition of kinases
Chain of death-associated protein kinase (DAPK) (P53355 1-285 limits assumed, species assumed): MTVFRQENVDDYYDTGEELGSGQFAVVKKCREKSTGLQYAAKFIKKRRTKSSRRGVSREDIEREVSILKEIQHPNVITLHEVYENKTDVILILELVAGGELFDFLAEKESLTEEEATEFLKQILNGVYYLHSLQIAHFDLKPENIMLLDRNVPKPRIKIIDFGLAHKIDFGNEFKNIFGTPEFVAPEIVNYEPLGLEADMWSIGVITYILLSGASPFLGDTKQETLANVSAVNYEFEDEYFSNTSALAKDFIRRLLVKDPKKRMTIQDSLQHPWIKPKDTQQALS
Procedure: as §1

protein kinase A (PKA) = protein kinase A (PKA) (Homo sapiens, UniProt P17612); assay: Kinase inhibitory activity against protein kinase A; assay type: biochemical; details: read-out: PKA (μM), in vitro inhibition of kinases
Procedure: as §1

protein kinase C (PKC) = assay: Kinase inhibitory activity against protein kinase C; assay type: biochemical; details: read-out: PKC (μM), in vitro inhibition of kinases
Procedure: MLCK inhibitory activity screens were done by incubation with 20 μM peptide substrate (KKRPQRATSNVFAM-NH2), 200 μM ATP and [^32P]-ATP (2.5 μCi per reaction) in assay buffer (50 mM HEPES, pH 7.5 with KOH, 5 mM MgCl2, 0.15 M KCl, 0.015 M NaCl, 1 mM DTT) with 0.1 mM CaCl2 and 1 μM calmodulin (New England Biolabs, MA). [T. J. Lukas, S. Mirzoeva, U. Slomczynska and D. M. Watterson, J. Med. Chem. 42 (1999) 910-9.] Reactions were initiated by addition of MLCK protein and incubated for 20 min at 25° C. Reactions were spotted onto P-81 paper (Whatman, Clifton, N.J.), washed with 75 mM H3PO4 and 95% EtOH, and quantified by scintillation counting in EcoScintO (National Diagnostics, Atlanta, Ga.). Testing of compounds for kinase inhibitory activity against the structurally and functionally related kinases death-associated protein kinase (DAPK) and the signal transduction pathway relevant kinases protein kinase A (PKA) and protein kinase C (PKC) was performed as described by using the corresponding peptide substrates and assay conditions. [S. Mirzoeva, A. Sawkar, M. Zasadzki, L. Guo, A. V. Velentza, V. Dunlap, J. J. Bourguignon, H. Ramstrom, J. Haiech, L. J. Van Eldik and D. M. Watterson, J. Med. Chem 45 (2002) 563-6; A. M. Schumacher, J. P. Schavocky, A. V. Velentza, S. Mirzoeva and D. M. Watterson, Biochemistry 43 (2004) 8116-24; A. V. Velentza, A. M. Schumacher and D. M. Watterson, Pharmacol Ther 93 (2002) 217-24; A. V. Velentza, A. M. Schumacher, C. Weiss, M. Egli and D. M. Watterson, J. Biol. Chem. 276 (2001) 38956-65; D. M. Watterson, S. Mirzoeva, L. Guo, A. Whyte, J. J. Bourguignon, M. Hibert, J. Haiech and L. J. Van Eldik, Neurochem Int. 39 (2001) 459-68.]

[2] = In vitro metabolic stability with human liver microsomes; assay type: in vitro ADME; details: 5 μM compound, 10 and 30 min at 37° C., HPLC
Procedure: A standard screening of compounds for in vitro metabolic stability with human liver microsomes was done at 5 μM of compound using commercially available, calibrated human liver microsomes (BD Biosciences, Bedford, Mass.) and an NADPH-regenerating system. [D. Ackley, K. Rockich and T. Baker. in (Caldwell, Z. Y. a. G. W., ed.) Methods in pharmacology and toxicology optimization in drug discovery: in vitro methods, Humana Press Inc., Totowa, N.J. 2004, pp. 151-62.] Briefly, reaction mixtures were prepared in 0.1 M potassium phosphate buffer and contained 1.6 mg/ml microsomal protein, 5 μM test compound, 1.3 mM NADPH, 3.3 mM MgCl2, 0.4 U/ml glucose-6-phosphate dehydrogenase, and 3.3 mM glucose-6-phosphate in a total volume of 300 μl. Reactions were incubated for 10 and 30 minutes at 37° C. and halted by addition of cold acetonitrile. The mixture was centrifuged at 10000 g for 10 min and 20 μl of supernatant was analyzed by HPLC to quantify the percentage of the initial amount of compound remaining after incubation. The HPLC mobile phase consisted of 5% acetonitrile in water as reagent A and 80% acetonitrile/0.08% formic acid/water as reagent B at a flow rate of 0.2 ml/min. The gradient consisted of the following variations in % B: begin with % B at 0 for 2 min, 0-100% from 2 to 22 min, isocratic until 24 min. Peak quantification was done based upon absorption measurements at 260 nm relative to a standard curve obtained by serial dilutions of known amounts of compounds.

[3] = tested on: LPS induced vascular leak in the lungs; assay: Bacterial toxin (LPS)-induced pulmonary vascular leak, Evans blue dye in lung; assay type: in vivo; details: mice, LPS 10 mg/kg i.p., compound 5 mg/kg i.p., 24 h
Procedure: Adult (20-30 g) female C57B1/6 mice were obtained from a commercial vendor (Harlan, Indianapolis, Ind.). The generation and characterization of the MLCK210 KO mouse strain was previously described. [M. S. Wainwright, J. Rossi, J. Schavocky, S. Crawford, D. Steinhorn, […]. Jia, […]. Van Eldik and D. M. Watterson, Proc. Natl. Acad. Sci. USA 100 (2003) 6233-8.] All animal procedures were performed in accordance with relevant National Institutes of Health guidelines and approved by the Institutional Animal Care and Use Committee of Northwestern University. Pulmonary vascular leak after injurious endotoxin exposure was examined essentially as previously described, above, except using the increase in Evans blue dye in the lung as a quantitative end point. […] The levels of Evans blue in the serum and the tissue supernatant were then determined by measuring the absorbance at 620 nm. The reading at 620 nm (E620) was corrected for the presence of contaminating heme pigments in the samples by measuring the absorbance at 740 nm (E740) and using the correction formula E620=E620-(1.426×E740+0.030). The amount of Evans blue in the samples was then calculated using a standard curve obtained with known amounts of Evans blue. The results were normalized by considering the mean level of Evans blue measured in LPS-treated mice as 100%.

SMILES	IC50 (MLCK)	selectivity for MLCK over related protein kinases (in words) (MLCK)	IC50 [1]	IC50 (protein kinase A (PKA))	IC50 (protein kinase C (PKC))	selectivity for MLCK versus DAPK (MLCK; ratio from Table 1)	amount of compound remaining after incubation with human liver microsomes [2]	amount of compound remaining after incubation with human liver microsomes ([2]; listed as compound 6)	level of Evans blue dye in lung tissue (pulmonary vascular leak) [3]	MLCK inhibitory activity relative to parent compound (in words) (MLCK; in vitro, versus compound 6)
N=c1ccc(-c2ccccc2)nn1CCCCCCCCCCC(=O)NCCc1c[nH]cn1 [Compound 5, N-(2-(1H-imidazol-4-yl)ethyl)-11-(6-imino-3-phenylpyridazin-1(6H)-yl)undecanamide]	6.3 µM	more selective than compounds 1 or 2	271 µM	> 1000 µM	166 µM	–	–	–	–	–
CN1CCCC1CCNC(=O)CCCCCCCCCCn1nc(-c2ccccc2)ccc1=N (stereo not drawn) [Compound 6, 11-(6-imino-3-phenylpyridazin-1(6H)-yl)-N-(2-(1-methylpyrrolidin-2-yl)ethyl)-undecanamide]	13.3 µM	highly selective for MLCK; also recorded: selective for MLCK compared to closely related protein kinases	> 1000 µM	> 1000 µM	414 µM	over 76 times	stable	did not decrease up to 30 minutes of incubation; also recorded: The majority of compound 6 (filled bar) remains after 10 and 30 min incubation times	efficacious in vivo to reduce LPS-induced pulmonary vascular leak; also recorded: significantly lower (*p<0.05) levels of dye	–
N=c1ccc(-c2ccccc2)nn1CCCCCCCCCCC(=O)NCCC1CCCC1 [Compound 10, N-(2-cyclopentylethyl)-11-(6-imino-3-phenylpyridazin-1(6H)-yl)undecanamide]	2.5 µM	selective for MLCK	206 µM	> 1000 µM	68 µM	–	significantly lower than compound 6; also recorded: significantly different (***p<0.001) at 10 and 30 min compared to zero min	–	–	more active in vitro than the parent compound 6
